The record followed here is patent US8431563B2 (priority 2010, dated 2013).

By EC50 is commonly meant the concentration at which the effect is half-maximal. As usually defined, the IC50 is the point on the concentration scale where inhibition reaches its midpoint. High values mean weaker potency in that assay, low ones greater potency in that assay.

Each structure is given as a SMILES string.

Assay [1] addresses T1, GK-GKRP (Homo sapiens, UniProt Q14397).
T1 sequence (Q14397 1-625): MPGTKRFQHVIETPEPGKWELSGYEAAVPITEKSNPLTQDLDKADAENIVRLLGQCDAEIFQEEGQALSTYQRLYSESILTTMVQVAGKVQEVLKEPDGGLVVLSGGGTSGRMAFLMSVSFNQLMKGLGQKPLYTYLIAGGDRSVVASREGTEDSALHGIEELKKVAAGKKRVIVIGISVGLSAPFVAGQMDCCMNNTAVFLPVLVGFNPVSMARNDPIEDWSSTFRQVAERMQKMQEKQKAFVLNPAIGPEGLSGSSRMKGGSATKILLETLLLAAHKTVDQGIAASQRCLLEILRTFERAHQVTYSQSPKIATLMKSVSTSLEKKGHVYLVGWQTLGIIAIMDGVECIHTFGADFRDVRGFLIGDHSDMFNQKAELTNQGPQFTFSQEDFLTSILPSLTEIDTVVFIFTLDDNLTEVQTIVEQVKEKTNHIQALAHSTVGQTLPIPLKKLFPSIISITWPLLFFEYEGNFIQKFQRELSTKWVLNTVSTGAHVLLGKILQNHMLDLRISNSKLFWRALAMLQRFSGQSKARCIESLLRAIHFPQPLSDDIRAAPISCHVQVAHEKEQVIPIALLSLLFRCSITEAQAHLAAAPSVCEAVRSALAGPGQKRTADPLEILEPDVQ
Kind of assay: biochemical.

The target in assay [2] is T1, GK-GKRP. The experiment in a line: biochemical. The settings on record: GK-GKRP IC50 (Binding).

On to `CC(O)(c1ccc(N2CCN(S(=O)(=O)c3cccs3)C[C@@H]2CN2C(=O)NC(=O)C23CCC3)cc1)C(F)(F)F` (mixture of isomers) [Example 236, 5-(((2S)-4-(2-thiophenylsulfonyl)-1-(4-(2,2,2-trifluoro-1-hydroxy-1-methylethyl)phenyl)-2-piperazinyl)methyl)-5,7-diazaspiro[3.4]octane-6,8-dione], for which a half-maximal response at GK-GKRP [1] (EC50) required 363 nM. Also, the IC50 on GK-GKRP [2] was determined as 379 nM. Taken in the same sequence, the figures for `CC(C)S(=O)(=O)NC[C@H]1CN(S(=O)(=O)c2cccs2)CCN1c1ccc(C(C)(O)C(F)(F)F)cc1` (mixture of isomers) [Example 237, N-(((2S)-4-(thiophen-2-ylsulfonyl)-1-(4-(1,1,1-trifluoro-2-hydroxypropan-2-yl)phenyl)piperazin-2-yl)methyl)propane-2-sulfonamide] were 632 nM and 335 nM. `CC(C)N1C(=O)N(C[C@H]2CN(S(=O)(=O)c3cccs3)CCN2c2ccc(C(C)(O)C(F)(F)F)cc2)C(C)(C)C1=O` (mixture of isomers) [Example 242, 5,5-dimethyl-3-(1-methylethyl)-1-(((2S)-4-(2-thiophenylsulfonyl)-1-(4-(2,2,2-trifluoro-1-hydroxy-1-methylethyl)phenyl)-2-piperazinyl)methyl)-2,4-imidazolidinedione] returned an EC50 on GK-GKRP [1] of 29 nM. Also, the IC50 at GK-GKRP [2] worked out at 19 nM. As to `CC1(C)C(=O)NCCN1C[C@H]1CN(S(=O)(=O)c2ccc(N)nc2)CCN1c1ncc(C(O)(C(F)(F)F)C(F)(F)F)cn1` [Example 235, 4-(((2S)-4-((6-amino-3-pyridinyl)sulfonyl)-1-(5-(2,2,2-trifluoro-1-hydroxy-1-(trifluoromethyl)ethyl)-2-pyrimidinyl)-2-piperazinyl)methyl)-3,3-dimethyl-2-piperazinone], on GK-GKRP [1], the EC50 was determined as 13 nM. The compound further yielded an IC50 on GK-GKRP [2] of 8 nM.

Regarding `CCC(C)S(=O)(=O)NC[C@H]1CN(S(=O)(=O)c2cccs2)CCN1c1ccc(C(C)(O)C(F)(F)F)cc1` (stereo partly drawn) [Example 238, N-(((2S)-4-(2-thiophenylsulfonyl)-1-(4-(2,2,2-trifluoro-1-hydroxy-1-methylethyl)phenyl)-2-piperazinyl)methyl)-2-butanesulfonamide], a half-maximal effect on GK-GKRP [1] (EC50) was put at 270 nM. On GK-GKRP [2], the IC50 is 204 nM.

In turn, `Nc1ccc(S(=O)(=O)N2CCN(c3ncc(C(O)(C(F)(F)F)C(F)(F)F)cn3)C(C#CC3CC3)C2)cn1` (centres unmarked) [Example 246, 2-(2-(4-((6-amino-3-pyridinyl)sulfonyl)-2-(cyclopropylethynyl)-1-piperazinyl)-5-pyrimidinyl)-1,1,1,3,3,3-hexafluoro-2-propanol] had an EC50 at GK-GKRP [1] of 314 nM. The IC50 on GK-GKRP [2] worked out at 191 nM. Taken in the same sequence, the figures for `O=S(=O)(c1ccccc1)c1ccc(-c2ncc(C(O)(C(F)(F)F)C(F)(F)F)cn2)cc1` [Example 263, 1,1,1,3,3,3-hexafluoro-2-(2-(4-(phenylsulfonyl)phenyl)-5-pyrimidinyl)-2-propanol] were 478 nM and 484 nM. The compound `Nc1ccc(S(=O)(=O)c2ccc(-c3ncc(C(O)(C(F)(F)F)C(F)(F)F)cn3)cn2)cn1` [Example 267, 2-(2-(6-((6-amino-3-pyridinyl)sulfonyl)-3-pyridinyl)-5-pyrimidinyl)-1,1,1,3,3,3-hexafluoro-2-propanol] yielded an EC50 on GK-GKRP [1] of 113 nM. Besides, the IC50 on GK-GKRP [2] was determined as 103 nM. Taken in the same sequence, the figures for `Cc1cc(S(=O)(=O)c2ccc(N)nc2)ccc1-c1ncc(C(O)(C(F)(F)F)C(F)(F)F)cn1` [Example 268, 2-(2-(4-((6-amino-3-pyridinyl)sulfonyl)-2-methylphenyl)-5-pyrimidinyl)-1,1,1,3,3,3-hexafluoro-2-propanol] were 232 nM and 103 nM. For `C[C@H]1COCC(=O)N1C[C@H]1CN(S(=O)(=O)c2cccs2)CCN1c1ccc([C@](C)(O)C(F)(F)F)cc1` [Example 272, (S)-5-methyl-4-(((S)-4-(tiophen-2-ylsulfonyl)-1-(4-((S)-1,1,1-trifluoro-2-hydroxypropan-2-yl)phenyl)piperazin-2-yl)methyl)morpholin-3-one], the IC50 on GK-GKRP [2] amounted to 217 nM. In turn, `Nc1ccc(S(=O)(=O)N2CCN(c3ccc(C(O)(C(F)(F)F)C(F)(F)F)cc3)[C@@H](CS(=O)(=O)c3ccccc3)C2)cn1` [Example 273, 2-(4-((2R)-4-((6-amino-3-pyridinyl)sulfonyl)-2-((phenylsulfonyl)methyl)-1-piperazinyl)phenyl)-1,1,1,3,3,3-hexafluoro-2-propanol] showed an IC50 at GK-GKRP [2] of 49 nM.
